The text below walks through data of patent US12246011B2, “Radiation mitigator and method of use thereof” (Georgetown University, priority 2016, dated 2025).

For data set [1] the following is noted: largest among ARBs; cited from earlier work.
A further data set concerns C57BL/6 mice. The data set can be described thus: Barrier function study (intestinal epithelial permeability to FITC-dextran) after 14 Gy TBI. Type of data set: in vivo. As to conditions: three doses of 10 mg/kg body weight per day beginning 24 h post-IR, serum FITC 5 d post-IR. On the procedure:
Gamma radiation: 7-week-old C57BL/6 mice were exposed to total body irradiation (TBI) 14 Gy gamma ionizing radiation (IR) with air pumped into the chamber during. A Gammacell 40 ^137Cs gamma irradiator was used with a dose rate of 0.8 Gy IR per minute. Dosimetry measurements were performed using Fricke Dosimetry systems. Measured absorbance dose was: Central Dose Rate (0.790 Gy/min±2.9%); 3 o'clock position (0.804 Gy/min±3.8%); and 7 o'clock position (0.808 Gy/min±2.7%). The experiments were performed within 6 months of the dosimetry analysis. All IR treatments were begun in the morning. […] All animals received easy access to liquid gel food and water in the cage.
Barrier function study: Two hours before euthanasia (5 d post-IR), each mouse was orally administered (gavage) with 100 μL of FITC-dextran (FITC dextran 4; MW 4000) at a dose of 80 mg/100 g body weight. Serum analysis of FITC concentration was performed in triplicate using Synergy Bio TEK plate reader.
Gamma radiation: 7-week-old C57BL/6 mice were exposed to total body irradiation (TBI) 14 Gy gamma ionizing radiation (IR) with air pumped into the chamber during. A Gammacell 40 ^137Cs gamma irradiator was used with a dose rate of 0.8 Gy IR per minute. […] Measured absorbance dose was: Central Dose Rate (0.790 Gy/min±2.9%); 3 o'clock position (0.804 Gy/min±3.8%); and 7 o'clock position (0.808 Gy/min±2.7%). […]

Data set [2] has as its system YAMC (normal colonic epithelial cell line). The data set can be described thus: Colony forming assay (cell survival) after 4 Gy IR. Type of data set: cell-based, Murine. As to conditions: treatment 24 h post-IR at 10 μM, 100 μM and 1 mM, colonies counted at end of 96 h. On the procedure: (§1) Gamma radiation: YAMC (normal colonic epithelial cell line) were exposed to 4 Gy gamma ionizing radiation (IR) with air pumped into the chamber during exposure. A Gammacell 40 ^137Cs gamma irradiator was used with a dose rate of 0.8 Gy IR per minute. Dosimetry measurements were performed using Fricke Dosimetry systems. Measured absorbance dose was: Central Dose Rate (0.790 Gy/min±2.9%); 3 o'clock position (0.804 Gy/min±3.8%); and 7 o'clock position (0.808 Gy/min±2.7%). The experiments were performed within 6 months of the dosimetry analysis.
Colony forming assay: Colony forming assay is universally recognized as the gold standard method for measuring the effects of radiation, chemotherapeutic drugs on cell viability, and cell survival. […] At the end of 96 h, cells were fixed and counted for number of colonies formed. The number of colonies formed represents the number of cells survived.
Gamma radiation: YAMC (normal colonic epithelial cell line) were exposed to 4 Gy gamma ionizing radiation (IR) with air pumped into the chamber during exposure. A Gammacell 40 ^137Cs gamma irradiator was used with a dose rate of 0.8 Gy IR per minute. Dosimetry measurements were performed using Fricke Dosimetry systems. Measured absorbance dose was: Central Dose Rate (0.790 Gy/min±2.9%); 3 o'clock position (0.804 Gy/min±3.8%); and 7 o'clock position (0.808 Gy/min±2.7%). […]

Data set [3] shares this test system. The data set can be described thus: Clonogenic assay for self-renewal (spheroid formation) after 4 Gy IR. As to conditions: treatment 24 h post-IR at 10 μM, 100 μM and 1 mM, spheroids counted at end of 192 h. It counts as cell-based, Murine. Here is the method: as §1
Clonogenic assay for self-renewal: Self-renewal is the hallmark for stem cells or stem-like cells. Clonogenic assay or clonal expansion of single cell into spheroids/organoids is the reputed method to analyze cell self-renewal. […] At the end of 192 h, spheroids were counted for quantitative assessment of the number of spheroids formed.
Gamma radiation: YAMC (normal colonic epithelial cell line) were exposed to 4 Gy gamma ionizing radiation (IR) with air pumped into the chamber during exposure. […] Measured absorbance dose was: Central Dose Rate (0.790 Gy/min±2.9%); 3 o'clock position (0.804 Gy/min±3.8%); and 7 o'clock position (0.808 Gy/min±2.7%). […]
Clonogenic assay for self-renewal: Self-renewal is the hallmark for stem cells or stem-like cells. […] At the end of 192 h, spheroids were counted for quantitative assessment of the number of spheroids formed. […]

For `CCCc1nc2c(C)cc(-c3nc4ccccc4n3C)cc2n1Cc1ccc(-c2ccccc2C(=O)O)cc1` [telmisartan, Telmisartan], the volume of distribution in data set [1] is 500 L. Moreover, in the data set with C57BL/6 mice, the “intestinal epithelial permeability to FITC-dextran versus vehicle control” value is reported as “essentially the same”. In addition, the “YAMC cell survival (number of colonies formed) compared to vehicle treatment” value in data set [2] was “significantly increased”. For the same compound, the “self-renewal ability of YAMC cells (number of spheroids formed) compared to vehicle treatment” value in data set [3] is recorded as “significantly increased”.

Regarding `CC1(C)CC(O)CC(C)(C)N1[O]` [tempol, 4-hydroxy-2,2,6,6-tetramethylpiperidin-1-oxyl], the “intestinal epithelial permeability to FITC-dextran versus vehicle control” value in the data set with C57BL/6 mice is listed as “essentially the same”. Further, the “YAMC cell survival (number of colonies formed) compared to vehicle treatment” value in data set [2] was “significantly increased”. In data set [3], the “self-renewal ability of YAMC cells (number of spheroids formed) compared to vehicle treatment” value was “significantly increased”.
